Data published in ChEMBL document CHEMBL3351681, “Dual-stage triterpenoids from an African medicinal plant targeting the malaria parasite” (Bioorg Med Chem, 2014).
Activity calls are given as the source filed them. The rule behind the calls is not given here.

Assays:
Plasmodium berghei [1] = experiment: Antiplasmodial activity against GFP-expressing liver stage Plasmodium berghei sporozoites infected in human Huh7 cells preincubated for 1 hr before infection at 5 uM measured after 48 hrs post infection by firefly luciferase reporter gene assay; type: functional; details: Huh-7
[2] = Cytotoxicity against human HuH7 cells up to 15 uM after 48 hrs by Alamar Blue assay; type: cell-based; details: huh-7, 48 h
Plasmodium berghei [3] = experiment: Antiplasmodial activity against GFP-expressing liver stage Plasmodium berghei sporozoites infected in human Huh7 cells preincubated for 1 hr before infection at 1 uM measured after 48 hrs post infection by firefly luciferase reporter gene assay; type: functional; details: Huh-7
Plasmodium berghei [4] = experiment: Antiplasmodial activity against GFP-expressing liver stage Plasmodium berghei sporozoites infected in human Huh7 cells preincubated for 1 hr before infection at 15 uM measured after 48 hrs post infection by firefly luciferase reporter gene assay; type: functional; details: Huh-7
Plasmodium berghei [5] = experiment: Antiplasmodial activity against GFP-expressing liver stage Plasmodium berghei sporozoites infected in human Huh7 cells preincubated for 1 hr before infection measured after 48 hrs post infection by firefly luciferase reporter gene assay; type: functional, organism-based; details: Huh-7

Compound	inhibition at 5 µM (Plasmodium berghei [1]) [%]	Activity [2]	inhibition (Plasmodium berghei [3])	inhibition (Plasmodium berghei [4])	inhibition at 1 µM (Plasmodium berghei [3]) [%]	inhibition at 15 µM (Plasmodium berghei [4]) [%]	inhibition (Plasmodium berghei [5])	inhibition (Plasmodium berghei [1])
CO[C@H]1C=C2[C@@H](CC[C@H](O)[C@]2(C)CO)[C@]2(C)CC[C@]3(C)[C@@H]([C@H](C)C[C@@H](O)C=C(C)C)CC[C@@]3(C)[C@H]12 [BALSAMINOL B]	47	Non-toxic	–	–	–	–	–	–
CC(C)=C[C@H](O)C[C@@H](C)[C@H]1CC[C@@]2(C)[C@@H]3[C@@H](O)C=C4[C@@H](CC[C@H](O)C4(C)C)[C@]3(C)CC[C@]12C [BALSAMINOL F]	32	Non-toxic	Active	Active	–	–	–	–
COC(C)(C)/C=C/C[C@@H](C)[C@H]1CC[C@@]2(C)[C@@H]3[C@@H](O[C@H]4O[C@@H](CO)[C@H](O)[C@H](O)[C@@H]4O)C=C4[C@@H](CC[C@H](O)C4(C)C)[C@]3(C)CC[C@]12C [BALSAMINOSIDE A]	–	Toxic	–	–	–	–	–	–
CO[C@H]1C=C2[C@@H](CC[C@H](O)C2(C)C)[C@]2(C)CC[C@]3(C)[C@@H]([C@H](C)C[C@@H](O)C=C(C)C)CC[C@@]3(C)[C@H]12 [KARAVELAGENIN C]	73	Non-toxic	–	–	27	99	–	–
CO[C@H]1C=C2[C@@H](CC[C@H](O)C2(C)C)[C@]2(C)CC[C@]3(C)[C@@H]([C@H](C)C[C@H](C=C(C)C)OC(C)=O)CC[C@@]3(C)[C@H]12 [KARAVOATE A]	93	Toxic	–	–	28	–	–	–
CO[C@H]1C=C2[C@@H](CC[C@H](OC(C)=O)C2(C)C)[C@]2(C)CC[C@]3(C)[C@@H]([C@H](C)C[C@H](C=C(C)C)OC(C)=O)CC[C@@]3(C)[C@H]12 [KARAVOATE B]	96	Non-toxic	–	–	60	99	Dose-dependent effect	–
CCC(=O)O[C@@H](C=C(C)C)C[C@@H](C)[C@H]1CC[C@@]2(C)[C@@H]3[C@@H](OC)C=C4[C@@H](CC[C@H](O)C4(C)C)[C@]3(C)CC[C@]12C [KARAVOATE C]	60	Non-toxic	–	–	13	–	–	–
CCC(=O)O[C@H]1CC[C@@H]2C(=C[C@H](OC)[C@@H]3[C@@]2(C)CC[C@]2(C)[C@@H]([C@H](C)C[C@H](C=C(C)C)OC(=O)CC)CC[C@@]32C)C1(C)C [KARAVOATE D]	82	Non-toxic	–	–	34	93	–	–
CCCC(=O)O[C@@H](C=C(C)C)C[C@@H](C)[C@H]1CC[C@@]2(C)[C@@H]3[C@@H](OC)C=C4[C@@H](CC[C@H](O)C4(C)C)[C@]3(C)CC[C@]12C [KARAVOATE E]	89	Toxic	–	–	39	99	–	–
CCCC(=O)O[C@H]1CC[C@@H]2C(=C[C@H](OC)[C@@H]3[C@@]2(C)CC[C@]2(C)[C@@H]([C@H](C)C[C@H](C=C(C)C)OC(=O)CCC)CC[C@@]32C)C1(C)C [KARAVOATE F]	64	Non-toxic	–	–	11	82	–	–
CO[C@H]1C=C2[C@@H](CC[C@H](OC(=O)c3ccccc3)C2(C)C)[C@]2(C)CC[C@]3(C)[C@@H]([C@H](C)C[C@H](C=C(C)C)OC(=O)c4ccccc4)CC[C@@]3(C)[C@H]12 [KARAVOATE H]	–	Non-toxic	inactive	inactive	–	–	–	inactive
CO[C@H]1C=C2[C@@H](CC[C@H](O)C2(C)C)[C@]2(C)CC[C@]3(C)[C@@H]([C@H](C)C[C@H](C=C(C)C)OC(=O)c4ccc([N+](=O)[O-])cc4)CC[C@@]3(C)[C@H]12 [KARAVOATE I]	88	Non-toxic	–	–	34	97	–	–
CO[C@H]1C=C2[C@@H](CC[C@H](OC(=O)c3ccc([N+](=O)[O-])cc3)C2(C)C)[C@]2(C)CC[C@]3(C)[C@@H]([C@H](C)C[C@H](C=C(C)C)OC(=O)c4ccc([N+](=O)[O-])cc4)CC[C@@]3(C)[C@H]12 [KARAVOATE J]	–	Non-toxic	inactive	inactive	–	–	–	inactive
COc1ccc(C(=O)O[C@@H](C=C(C)C)C[C@@H](C)[C@H]2CC[C@@]3(C)[C@@H]4[C@@H](OC)C=C5[C@@H](CC[C@H](O)C5(C)C)[C@]4(C)CC[C@]23C)cc1 [KARAVOATE M]	87	Non-toxic	–	–	14	99	–	–
COc1ccc(C(=O)O[C@H]2CC[C@@H]3C(=C[C@H](OC)[C@@H]4[C@@]3(C)CC[C@]3(C)[C@@H]([C@H](C)C[C@H](C=C(C)C)OC(=O)c5ccc(OC)cc5)CC[C@@]43C)C2(C)C)cc1 [KARAVOATE N]	–	Non-toxic	inactive	inactive	–	–	–	inactive
CC(=O)O[C@H]1C=C2[C@@H](CC[C@H](OC(C)=O)C2(C)C)[C@]2(C)CC[C@]3(C)[C@@H]([C@H](C)C[C@H](C=C(C)C)OC(C)=O)CC[C@@]3(C)[C@H]12 [TRIACETYLBALSAMINOL F]	–	Non-toxic	Active	Active	–	–	–	Active
